One block for each compound: values may come before it. The source made the active and inactive calls.
What was measured:
Estrogen receptor = target: T1, Estrogen receptor (Homo sapiens, UniProt P03372);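 further: potency for inhibiting coactivator peptide recruitment to the receptor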
T1 sequence (P03372 whole entry): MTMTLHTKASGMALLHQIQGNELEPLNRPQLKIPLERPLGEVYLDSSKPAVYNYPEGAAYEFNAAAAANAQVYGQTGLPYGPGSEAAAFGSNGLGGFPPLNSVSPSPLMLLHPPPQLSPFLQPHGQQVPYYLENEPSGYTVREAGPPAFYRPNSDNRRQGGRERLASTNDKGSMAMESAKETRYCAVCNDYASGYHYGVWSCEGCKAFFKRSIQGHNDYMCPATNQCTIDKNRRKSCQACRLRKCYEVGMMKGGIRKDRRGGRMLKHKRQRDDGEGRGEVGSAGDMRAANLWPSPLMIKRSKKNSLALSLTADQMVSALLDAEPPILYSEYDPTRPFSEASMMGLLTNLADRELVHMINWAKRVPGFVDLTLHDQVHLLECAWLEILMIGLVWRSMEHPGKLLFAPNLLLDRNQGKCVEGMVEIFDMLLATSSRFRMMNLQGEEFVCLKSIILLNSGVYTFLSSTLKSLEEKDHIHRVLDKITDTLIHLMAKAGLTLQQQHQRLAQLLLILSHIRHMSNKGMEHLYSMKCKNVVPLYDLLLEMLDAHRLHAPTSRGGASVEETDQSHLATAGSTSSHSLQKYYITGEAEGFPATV

Bcl-2-like protein 10 [1] = target: T2, Bcl-2-like protein 10 (Homo sapiens, UniProt Q9HD36); test: displacers of TR3 peptide from Bcl-B, primary screen, selectivity assay for Bfl-1 inhibitor project, biochemical, fluorescence polarization, FITC-TR3 peptide (AID 748);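 further: fluorescence polarization from a fluorescein-labelled TR3 peptide binding purified Bcl-B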
T2 sequence (Q9HD36 whole entry): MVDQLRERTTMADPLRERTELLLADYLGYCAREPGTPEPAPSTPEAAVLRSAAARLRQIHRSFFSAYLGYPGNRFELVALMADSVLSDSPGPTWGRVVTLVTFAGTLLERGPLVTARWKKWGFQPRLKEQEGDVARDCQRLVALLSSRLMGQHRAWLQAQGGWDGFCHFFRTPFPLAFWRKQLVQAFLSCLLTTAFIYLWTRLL

[2] = target: 26S proteasome non-ATPase regulatory subunit 14 (Homo sapiens, UniProt O00487); test: inhibition of proteasome subunit RPN11 – biochemical, fluorescence polarization, uHTS hits, confirmation (AID 602368); format: functional
Sequence of 26S proteasome non-ATPase regulatory subunit 14 (O00487 whole entry): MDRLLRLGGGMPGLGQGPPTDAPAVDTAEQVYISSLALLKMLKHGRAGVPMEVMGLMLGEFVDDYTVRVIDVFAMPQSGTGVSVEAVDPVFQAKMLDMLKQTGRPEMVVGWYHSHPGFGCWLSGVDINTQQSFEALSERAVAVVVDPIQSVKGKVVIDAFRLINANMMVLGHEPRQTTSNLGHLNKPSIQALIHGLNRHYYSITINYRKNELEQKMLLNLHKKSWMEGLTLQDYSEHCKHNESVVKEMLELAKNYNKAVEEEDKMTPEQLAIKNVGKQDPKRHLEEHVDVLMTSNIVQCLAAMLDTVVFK

[3] = target: Induced myeloid leukemia cell differentiation protein Mcl-1 (Homo sapiens, UniProt Q07820); format: functional
Sequence of Induced myeloid leukemia cell differentiation protein Mcl-1 (Q07820 whole entry): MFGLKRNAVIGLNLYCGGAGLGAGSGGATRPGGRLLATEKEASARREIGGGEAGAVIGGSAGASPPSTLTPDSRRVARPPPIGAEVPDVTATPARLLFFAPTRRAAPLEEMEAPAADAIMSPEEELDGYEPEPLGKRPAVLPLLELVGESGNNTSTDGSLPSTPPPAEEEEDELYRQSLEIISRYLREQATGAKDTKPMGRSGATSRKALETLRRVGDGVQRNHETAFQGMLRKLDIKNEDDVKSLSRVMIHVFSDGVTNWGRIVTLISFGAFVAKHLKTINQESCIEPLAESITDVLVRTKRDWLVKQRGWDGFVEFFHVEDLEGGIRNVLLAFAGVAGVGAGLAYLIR

[4] = inhibitors of Bluetongue virus cytopathic effect, confirmation, arbovirus, BSR cells (AID 1250); format: functional;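 further: protection from viral cytopathic effect measured as cell viability by ATP luminescence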
Prothrombin = Prothrombin (Bos taurus, UniProt P00735); test: thrombin inhibition, dose response, biochemical, fluorescence polarization, uHTS hits (AID 602369); format: functional
[5] = target: 72 kDa type IV collagenase (Homo sapiens, UniProt P08253); test: Dose Response validation of uHTS RPN11 inhibitor hits using a MMP-2 Fluorescence assay.; format: functional
Sequence of 72 kDa type IV collagenase (P08253 whole entry): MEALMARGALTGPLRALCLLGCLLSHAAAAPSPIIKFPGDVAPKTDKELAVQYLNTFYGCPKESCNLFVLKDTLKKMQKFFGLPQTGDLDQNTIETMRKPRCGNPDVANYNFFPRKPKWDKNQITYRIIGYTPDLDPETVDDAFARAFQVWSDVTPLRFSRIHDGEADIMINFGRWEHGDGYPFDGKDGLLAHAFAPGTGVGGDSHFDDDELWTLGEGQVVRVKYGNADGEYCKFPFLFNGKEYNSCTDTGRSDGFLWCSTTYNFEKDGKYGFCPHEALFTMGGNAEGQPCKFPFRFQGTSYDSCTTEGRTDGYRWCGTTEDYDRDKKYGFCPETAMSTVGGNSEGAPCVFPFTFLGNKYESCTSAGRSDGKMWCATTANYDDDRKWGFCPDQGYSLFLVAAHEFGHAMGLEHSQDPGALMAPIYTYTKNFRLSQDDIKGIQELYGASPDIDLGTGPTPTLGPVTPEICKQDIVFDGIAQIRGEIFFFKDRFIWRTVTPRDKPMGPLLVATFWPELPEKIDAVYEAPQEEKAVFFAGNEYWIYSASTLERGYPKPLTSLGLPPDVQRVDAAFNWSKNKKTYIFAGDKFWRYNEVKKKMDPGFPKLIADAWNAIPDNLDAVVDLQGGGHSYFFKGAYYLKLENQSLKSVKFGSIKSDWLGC

Aminopeptidase N = target: T3, Aminopeptidase N (Plasmodium falciparum FcB1/Columbia, UniProt O96935); test: P. falciparum M1AAP inhibitors, biochemical, fluorogenic H-Leu-NHMec substrate, 1536-well (AID 1445); design: species or system Plasmodium falciparum 3D7, 3D7
T3 sequence (O96935 whole entry): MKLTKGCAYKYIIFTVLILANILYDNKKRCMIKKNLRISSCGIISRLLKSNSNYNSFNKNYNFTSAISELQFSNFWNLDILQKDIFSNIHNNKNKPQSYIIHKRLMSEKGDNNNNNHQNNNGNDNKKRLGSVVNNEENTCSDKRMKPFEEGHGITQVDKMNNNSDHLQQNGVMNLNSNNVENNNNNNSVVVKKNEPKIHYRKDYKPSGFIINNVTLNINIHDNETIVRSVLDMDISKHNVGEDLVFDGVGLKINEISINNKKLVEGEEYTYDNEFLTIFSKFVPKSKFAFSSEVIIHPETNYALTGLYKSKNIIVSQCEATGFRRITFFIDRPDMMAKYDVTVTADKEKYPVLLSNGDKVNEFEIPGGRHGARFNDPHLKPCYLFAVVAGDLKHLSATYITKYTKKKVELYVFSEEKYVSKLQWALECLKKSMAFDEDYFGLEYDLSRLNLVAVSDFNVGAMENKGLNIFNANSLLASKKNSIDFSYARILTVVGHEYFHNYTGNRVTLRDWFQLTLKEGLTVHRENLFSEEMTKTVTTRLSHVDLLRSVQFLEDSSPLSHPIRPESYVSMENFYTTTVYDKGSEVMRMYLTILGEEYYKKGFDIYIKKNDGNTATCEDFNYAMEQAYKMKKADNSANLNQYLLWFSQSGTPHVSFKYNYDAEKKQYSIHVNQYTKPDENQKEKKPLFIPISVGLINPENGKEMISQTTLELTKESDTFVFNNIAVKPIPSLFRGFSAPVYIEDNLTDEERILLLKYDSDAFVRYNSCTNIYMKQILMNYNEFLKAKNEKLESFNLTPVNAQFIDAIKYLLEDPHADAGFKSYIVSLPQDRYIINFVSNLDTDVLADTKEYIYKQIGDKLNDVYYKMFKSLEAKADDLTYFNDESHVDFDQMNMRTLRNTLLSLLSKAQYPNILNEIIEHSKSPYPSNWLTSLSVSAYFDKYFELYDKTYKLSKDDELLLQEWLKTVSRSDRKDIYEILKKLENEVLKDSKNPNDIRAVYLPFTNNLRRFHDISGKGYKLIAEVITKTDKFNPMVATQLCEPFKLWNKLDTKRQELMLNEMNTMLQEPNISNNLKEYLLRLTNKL

[6] = target: DNA (cytosine-5)-methyltransferase 1 (Homo sapiens, UniProt P26358); test: DNMT1 methyltransferase inhibitors, confirmation, biochemical, fluorescent molecular beacon (AID 602386); format: functional
Sequence of DNA (cytosine-5)-methyltransferase 1 (P26358 whole entry): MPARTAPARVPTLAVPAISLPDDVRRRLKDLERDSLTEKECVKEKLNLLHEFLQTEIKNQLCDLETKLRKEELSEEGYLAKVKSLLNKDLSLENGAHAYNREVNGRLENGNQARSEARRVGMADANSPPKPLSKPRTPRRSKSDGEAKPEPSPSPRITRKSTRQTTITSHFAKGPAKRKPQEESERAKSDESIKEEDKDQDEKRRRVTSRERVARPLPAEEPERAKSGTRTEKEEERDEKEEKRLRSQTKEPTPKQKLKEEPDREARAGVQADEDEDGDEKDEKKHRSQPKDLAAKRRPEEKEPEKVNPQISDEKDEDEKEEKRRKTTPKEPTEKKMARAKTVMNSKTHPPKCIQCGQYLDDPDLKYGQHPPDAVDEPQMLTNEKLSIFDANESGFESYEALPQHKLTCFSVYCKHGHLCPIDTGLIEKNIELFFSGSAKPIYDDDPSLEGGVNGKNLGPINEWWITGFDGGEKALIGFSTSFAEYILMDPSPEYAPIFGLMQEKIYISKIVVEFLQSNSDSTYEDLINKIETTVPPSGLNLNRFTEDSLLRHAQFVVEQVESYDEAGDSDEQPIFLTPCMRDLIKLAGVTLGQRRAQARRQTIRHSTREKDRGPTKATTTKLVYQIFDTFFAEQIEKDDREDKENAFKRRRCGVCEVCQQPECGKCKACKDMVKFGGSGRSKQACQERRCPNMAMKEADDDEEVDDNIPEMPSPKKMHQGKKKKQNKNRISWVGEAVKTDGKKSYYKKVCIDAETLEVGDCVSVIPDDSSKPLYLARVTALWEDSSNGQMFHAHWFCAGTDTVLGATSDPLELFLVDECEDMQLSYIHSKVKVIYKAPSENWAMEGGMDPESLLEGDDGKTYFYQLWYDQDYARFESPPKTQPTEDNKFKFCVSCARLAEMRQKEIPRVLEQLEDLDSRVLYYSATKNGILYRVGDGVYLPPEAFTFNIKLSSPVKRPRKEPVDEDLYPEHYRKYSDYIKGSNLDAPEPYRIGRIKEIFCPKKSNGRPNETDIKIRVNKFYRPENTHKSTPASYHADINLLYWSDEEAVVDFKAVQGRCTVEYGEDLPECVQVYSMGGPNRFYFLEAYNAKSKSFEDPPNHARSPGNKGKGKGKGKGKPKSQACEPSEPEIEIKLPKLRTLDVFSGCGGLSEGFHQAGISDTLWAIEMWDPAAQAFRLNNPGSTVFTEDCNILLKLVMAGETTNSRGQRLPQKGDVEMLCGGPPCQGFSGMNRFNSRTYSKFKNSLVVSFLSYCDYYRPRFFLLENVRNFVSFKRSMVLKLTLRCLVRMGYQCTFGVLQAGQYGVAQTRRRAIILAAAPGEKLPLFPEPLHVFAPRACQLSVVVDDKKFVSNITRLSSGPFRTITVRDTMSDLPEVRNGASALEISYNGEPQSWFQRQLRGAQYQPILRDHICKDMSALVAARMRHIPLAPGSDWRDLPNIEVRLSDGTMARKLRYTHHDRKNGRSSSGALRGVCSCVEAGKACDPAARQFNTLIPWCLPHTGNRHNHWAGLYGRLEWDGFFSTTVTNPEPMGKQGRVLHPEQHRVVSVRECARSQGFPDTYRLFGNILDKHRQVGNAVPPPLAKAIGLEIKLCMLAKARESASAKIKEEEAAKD

[7] = target: T4, Histone-lysine N-methyltransferase NSD2 (Homo sapiens, UniProt O96028); format: biochemical
T4 sequence (O96028 whole entry): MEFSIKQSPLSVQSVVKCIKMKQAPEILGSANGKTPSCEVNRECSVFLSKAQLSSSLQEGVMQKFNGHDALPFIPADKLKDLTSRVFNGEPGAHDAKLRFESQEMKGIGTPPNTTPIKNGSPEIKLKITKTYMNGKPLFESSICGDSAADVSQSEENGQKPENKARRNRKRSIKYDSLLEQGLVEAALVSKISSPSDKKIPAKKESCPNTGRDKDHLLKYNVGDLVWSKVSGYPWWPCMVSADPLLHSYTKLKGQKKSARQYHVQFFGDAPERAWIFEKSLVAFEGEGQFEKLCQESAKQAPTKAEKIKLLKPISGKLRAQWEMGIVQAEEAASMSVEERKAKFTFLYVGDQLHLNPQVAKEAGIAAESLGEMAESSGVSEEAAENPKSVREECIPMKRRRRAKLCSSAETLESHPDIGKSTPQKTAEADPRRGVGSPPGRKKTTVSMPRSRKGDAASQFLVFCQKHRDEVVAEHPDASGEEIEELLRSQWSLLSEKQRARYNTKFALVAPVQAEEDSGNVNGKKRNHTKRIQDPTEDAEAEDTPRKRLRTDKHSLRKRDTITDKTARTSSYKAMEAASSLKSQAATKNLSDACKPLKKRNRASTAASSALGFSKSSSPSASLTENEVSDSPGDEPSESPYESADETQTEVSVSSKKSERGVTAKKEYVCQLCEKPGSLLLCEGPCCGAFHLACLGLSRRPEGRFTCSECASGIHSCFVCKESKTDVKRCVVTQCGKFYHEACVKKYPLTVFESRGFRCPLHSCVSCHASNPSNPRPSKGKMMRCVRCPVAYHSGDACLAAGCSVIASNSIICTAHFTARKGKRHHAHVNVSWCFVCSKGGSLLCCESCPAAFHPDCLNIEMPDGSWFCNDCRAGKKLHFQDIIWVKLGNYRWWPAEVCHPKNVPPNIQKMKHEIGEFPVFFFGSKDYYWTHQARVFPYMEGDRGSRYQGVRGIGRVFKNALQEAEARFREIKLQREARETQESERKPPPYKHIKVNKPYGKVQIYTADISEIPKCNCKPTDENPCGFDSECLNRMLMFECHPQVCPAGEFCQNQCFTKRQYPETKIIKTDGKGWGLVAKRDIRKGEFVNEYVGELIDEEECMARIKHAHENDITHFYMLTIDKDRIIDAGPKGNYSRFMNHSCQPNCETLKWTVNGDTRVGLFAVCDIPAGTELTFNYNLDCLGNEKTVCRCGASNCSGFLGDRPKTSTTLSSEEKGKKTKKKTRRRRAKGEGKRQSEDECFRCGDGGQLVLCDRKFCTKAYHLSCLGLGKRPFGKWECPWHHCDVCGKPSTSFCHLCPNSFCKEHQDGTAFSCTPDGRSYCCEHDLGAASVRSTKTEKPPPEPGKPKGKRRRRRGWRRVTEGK

Insulin-degrading enzyme = target: T5, Insulin-degrading enzyme (Homo sapiens, UniProt P14735); test: Dose Response: Fluorescence polarization-based cell-based high throughput dose response assay for inhibitors of insulin-degrading enzyme (IDE). [Related pubchem assays: 434962 (Primary screen (IDE inhibitors in singlicate)), 449730 (Counterscreen (Cytotoxicity in triplicate)), 435028 (Confirmation (IDE inhibitors in triplicate)), 434984 (Summary …; format: functional
T5 sequence (P14735 whole entry): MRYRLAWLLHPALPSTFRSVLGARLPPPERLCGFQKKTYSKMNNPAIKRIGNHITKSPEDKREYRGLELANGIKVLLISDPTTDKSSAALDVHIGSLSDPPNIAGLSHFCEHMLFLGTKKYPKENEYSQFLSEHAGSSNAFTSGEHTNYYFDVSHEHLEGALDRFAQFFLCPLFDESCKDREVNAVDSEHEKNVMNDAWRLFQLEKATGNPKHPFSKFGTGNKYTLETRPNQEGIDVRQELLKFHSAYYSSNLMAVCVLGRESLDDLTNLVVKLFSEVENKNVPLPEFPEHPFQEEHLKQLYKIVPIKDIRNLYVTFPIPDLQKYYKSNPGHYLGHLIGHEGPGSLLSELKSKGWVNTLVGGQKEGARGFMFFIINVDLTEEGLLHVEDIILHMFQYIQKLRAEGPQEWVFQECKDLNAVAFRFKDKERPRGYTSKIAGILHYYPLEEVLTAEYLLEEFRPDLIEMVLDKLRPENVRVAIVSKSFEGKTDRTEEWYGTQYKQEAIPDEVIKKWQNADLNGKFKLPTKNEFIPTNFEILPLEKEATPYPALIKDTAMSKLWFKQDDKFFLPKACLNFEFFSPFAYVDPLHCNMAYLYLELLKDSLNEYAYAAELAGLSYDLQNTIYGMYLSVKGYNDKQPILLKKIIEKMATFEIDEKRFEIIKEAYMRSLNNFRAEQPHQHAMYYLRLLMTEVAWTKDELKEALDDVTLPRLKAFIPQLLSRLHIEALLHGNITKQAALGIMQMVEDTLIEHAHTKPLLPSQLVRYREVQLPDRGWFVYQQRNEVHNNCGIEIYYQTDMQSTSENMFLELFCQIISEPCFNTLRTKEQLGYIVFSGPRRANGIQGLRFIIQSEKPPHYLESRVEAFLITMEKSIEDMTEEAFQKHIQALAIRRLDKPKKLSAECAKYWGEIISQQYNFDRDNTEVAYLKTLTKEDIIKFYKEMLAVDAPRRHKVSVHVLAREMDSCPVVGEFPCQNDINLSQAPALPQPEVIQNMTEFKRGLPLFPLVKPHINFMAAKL

[8] = Counterscreen for IDE inhibitors: Luminescence-based cell-based high throughput dose response assay to identify compounds that are cytotoxic to HEK cells. [Related pubchem assays: 434962 (Primary screen (IDE inhibitors in singlicate)), 449730 (Counterscreen (Cytotoxicity in triplicate)), 435028 (Confirmation (IDE inhibitors in triplicate)) …; format: functional; conditions: HEK293
Oxytocin receptor = Oxytocin receptor (Homo sapiens, UniProt P30559); test: Counterscreen for vasopressin 1 receptor (V1R) agonists: Fluorescence-based cell-based high throughput dose response assay for agonists of the Oxytocin Receptor (OXTR). [Related pubchem assays: 2435 (Primary screen (OXTR agonists in singlicate)), 434964 (Confirmation screen (V1R agonists in triplicate)), 434969 (Counterscreen (OXTR agonists in …; format: functional
Sequence of Oxytocin receptor (P30559 whole entry): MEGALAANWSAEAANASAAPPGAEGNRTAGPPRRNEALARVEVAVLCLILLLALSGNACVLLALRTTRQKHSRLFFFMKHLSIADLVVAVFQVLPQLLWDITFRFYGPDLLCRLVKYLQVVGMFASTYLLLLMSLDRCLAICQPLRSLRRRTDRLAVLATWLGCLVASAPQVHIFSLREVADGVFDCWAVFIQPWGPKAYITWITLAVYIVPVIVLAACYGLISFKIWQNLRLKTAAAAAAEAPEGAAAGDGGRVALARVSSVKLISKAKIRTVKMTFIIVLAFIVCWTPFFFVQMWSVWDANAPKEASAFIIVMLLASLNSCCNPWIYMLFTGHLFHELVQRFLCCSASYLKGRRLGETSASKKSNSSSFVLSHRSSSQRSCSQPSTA

Vasopressin V1a receptor = Vasopressin V1a receptor (Homo sapiens, UniProt P37288); test: Fluorescence-based cell-based high throughput dose response screening assay for agonists of the vasopressin 1 receptor (V1R).; format: functional
Sequence of Vasopressin V1a receptor (P37288 whole entry): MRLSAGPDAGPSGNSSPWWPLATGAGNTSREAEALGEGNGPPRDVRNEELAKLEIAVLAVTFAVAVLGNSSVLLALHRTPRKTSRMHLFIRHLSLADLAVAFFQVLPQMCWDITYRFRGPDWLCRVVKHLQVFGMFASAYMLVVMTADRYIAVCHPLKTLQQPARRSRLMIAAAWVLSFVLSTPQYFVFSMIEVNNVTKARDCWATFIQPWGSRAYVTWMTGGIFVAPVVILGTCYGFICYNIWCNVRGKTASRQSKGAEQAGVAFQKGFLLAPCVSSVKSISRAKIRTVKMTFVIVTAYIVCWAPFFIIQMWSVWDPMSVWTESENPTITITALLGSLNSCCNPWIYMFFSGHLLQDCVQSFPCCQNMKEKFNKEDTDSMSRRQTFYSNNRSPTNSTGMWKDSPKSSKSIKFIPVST

[9] = target: Epstein-Barr nuclear antigen 1 (Epstein-Barr virus (strain B95-8) (HHV-4) (Human herpesvirus 4), UniProt P03211); test: EBNA-1 inhibitors, dose response, biochemical, fluorescence polarization, 1536-well (AID 2381); design: species or system human gammaherpesvirus 4;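 further: fluorescence polarization of a Cy5 DNA probe bound by EBNA-1 protein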
Sequence of Epstein-Barr nuclear antigen 1 (P03211 whole entry): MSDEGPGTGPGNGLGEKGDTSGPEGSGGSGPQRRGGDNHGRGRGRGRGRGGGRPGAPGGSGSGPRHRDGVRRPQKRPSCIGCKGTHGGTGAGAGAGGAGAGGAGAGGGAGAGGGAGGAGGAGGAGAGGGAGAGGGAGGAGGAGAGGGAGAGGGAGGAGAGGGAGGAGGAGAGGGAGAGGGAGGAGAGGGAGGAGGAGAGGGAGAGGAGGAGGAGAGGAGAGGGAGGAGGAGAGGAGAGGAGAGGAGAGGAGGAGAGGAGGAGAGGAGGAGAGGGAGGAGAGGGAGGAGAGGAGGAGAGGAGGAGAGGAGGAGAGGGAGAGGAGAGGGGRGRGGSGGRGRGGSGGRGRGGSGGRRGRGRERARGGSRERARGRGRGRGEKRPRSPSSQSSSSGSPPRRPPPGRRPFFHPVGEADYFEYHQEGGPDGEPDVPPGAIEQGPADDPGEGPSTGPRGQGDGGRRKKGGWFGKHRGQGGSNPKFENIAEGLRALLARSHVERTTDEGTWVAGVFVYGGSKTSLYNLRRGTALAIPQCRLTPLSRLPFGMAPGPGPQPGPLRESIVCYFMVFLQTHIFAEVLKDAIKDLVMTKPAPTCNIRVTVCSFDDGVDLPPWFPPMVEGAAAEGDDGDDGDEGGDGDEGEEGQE

[10] = target: Lytic switch protein BZLF1 (Epstein-Barr virus (strain B95-8) (HHV-4) (Human herpesvirus 4), UniProt P03206); test: EBV ZTA inhibitors, dose response, counter-screen for EBNA-1 inhibitor project, biochemical, fluorescence polarization, Epstein-Barr virus, 1536-well (AID 2377); design: species or system human gammaherpesvirus 4;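 further: fluorescence polarization of Cy5-labelled ZRE DNA probe bound by purified Zta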
Sequence of Lytic switch protein BZLF1 (P03206 whole entry): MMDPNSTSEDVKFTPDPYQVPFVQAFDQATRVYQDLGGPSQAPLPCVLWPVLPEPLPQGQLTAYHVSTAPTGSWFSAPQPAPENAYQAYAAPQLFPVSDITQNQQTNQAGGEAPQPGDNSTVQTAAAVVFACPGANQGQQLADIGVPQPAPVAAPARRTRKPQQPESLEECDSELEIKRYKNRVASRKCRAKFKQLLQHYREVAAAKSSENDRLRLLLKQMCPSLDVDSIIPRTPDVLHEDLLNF

Bcl-2-like protein 10 [11] = target: T2, Bcl-2-like protein 10; test: Biochemical TR3 FP assay of Bcl-B inhibitor potency, EC50 (AID 1243); format: functional

SMILES: CCOC(=O)C1=C(C)S/C(=C\N(C)C)C1=O
IC50 (Estrogen receptor): 40.3 µM (not active)
IC50 (Bcl-2-like protein 10 [1]): 37.8 µM (active)

SMILES: Cc1ccc(-n2cccc2/C=C2/C(=N)N3C(=NC2=O)SN=C3S(C)(=O)=O)cc1Cl
IC50 [2]: 13.4 µM (active)
IC50 [3]: 1.86 µM (active)
IC50 [4]: 28.9 µM (active)
IC50 (Prothrombin): 21.1 µM (active)
IC50 [5]: > 100 µM (inactive)
IC50 (Aminopeptidase N): 15 µM (active)
IC50 [6]: 7.72 µM (active)
AC50 [7]: 8.75 µM (active)

SMILES: CC(OC(=O)/C(C#N)=C/c1ccc(N(C)C)cc1)C(=O)N(C)Cc1ccccc1 (configuration not stated)
IC50 (Insulin-degrading enzyme): 12.8 µM (not active)
IC50 [8]: 16.5 µM (not active)
EC50 (Oxytocin receptor): > 9.97 µM (active)
EC50 (Vasopressin V1a receptor): > 3.32 µM (active)

Results, then the compound that gave them:

IC50 [9]: 12 µM (not active)
IC50 [10]: > 111 µM (not active)
SMILES: O=C(CSc1nc2ccc(NC(=O)CSc3nnnn3-c3ccccc3)cc2s1)Nc1ccccc1

EC50 (Bcl-2-like protein 10 [11]): 33.4 µM (active)
SMILES: O=C1NN(c2ccc(F)c(Cl)c2)C(=O)/C1=C\c1ccco1
